The text below walks through data of patent US20250073249A1, “STEROID COMPOUND, AND PREPARATION METHOD THEREFOR AND USE THEREOF” (SHANGHAI INSTITUTE OF MATERIA MEDICA, CHINESE ACADEMY OF …, priority 2022, published 2025).

Where a chain is given by its changes, count along the chain named.

Type in all cases: cell-based
In one test the test system is LNCaP cells. The test can be described thus: In vitro LNCaP cell proliferation inhibition test (CellTiter-Glo). The conditions noted are these: for Maximum Inhibition (%) / IC50: 6 days; for IC50: Homo sapiens, read-out: Anti-proliferative activity IC50; for Anti-proliferative activity, fold improvement compared to abiraterone: ratio to abiraterone IC50. Background: ATP-based viability assays read luminescence as a measure of living cells.

The next test addresses T1, AR(W741L) (Homo sapiens, UniProt P10275, W742L).
T1 construct: expressed in transfected cells; host or cells: HEK293
T1 sequence (P10275 1-920 W742L): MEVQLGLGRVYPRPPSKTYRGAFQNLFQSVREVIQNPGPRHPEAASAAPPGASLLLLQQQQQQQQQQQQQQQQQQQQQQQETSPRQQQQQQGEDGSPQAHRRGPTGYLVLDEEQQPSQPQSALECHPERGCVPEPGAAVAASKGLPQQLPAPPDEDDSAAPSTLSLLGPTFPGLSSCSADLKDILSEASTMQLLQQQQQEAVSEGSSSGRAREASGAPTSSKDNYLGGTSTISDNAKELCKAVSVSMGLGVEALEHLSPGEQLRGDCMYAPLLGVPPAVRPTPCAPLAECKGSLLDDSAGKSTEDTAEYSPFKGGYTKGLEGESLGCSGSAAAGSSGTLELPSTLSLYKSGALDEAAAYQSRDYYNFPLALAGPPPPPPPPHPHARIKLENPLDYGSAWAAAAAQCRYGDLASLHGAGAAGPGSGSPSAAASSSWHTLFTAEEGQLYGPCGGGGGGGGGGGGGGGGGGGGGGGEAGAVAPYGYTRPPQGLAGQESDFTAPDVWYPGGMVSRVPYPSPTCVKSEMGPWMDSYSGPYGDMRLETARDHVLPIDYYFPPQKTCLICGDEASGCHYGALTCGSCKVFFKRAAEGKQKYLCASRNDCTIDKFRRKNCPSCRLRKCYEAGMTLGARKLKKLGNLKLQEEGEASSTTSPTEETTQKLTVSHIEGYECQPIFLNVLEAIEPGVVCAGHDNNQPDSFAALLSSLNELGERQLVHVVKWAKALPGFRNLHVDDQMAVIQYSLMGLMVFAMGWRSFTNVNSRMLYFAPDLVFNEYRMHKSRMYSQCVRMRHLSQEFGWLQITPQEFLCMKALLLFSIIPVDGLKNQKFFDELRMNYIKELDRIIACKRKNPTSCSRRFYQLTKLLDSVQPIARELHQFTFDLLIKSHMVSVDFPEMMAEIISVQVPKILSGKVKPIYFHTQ
The experiment in a line: Mutant AR antagonistic activity test, W741L (reporter gene in HEK293 cells). The conditions noted are these: for IC50: HEK293 cells, DHT 10 nM, 24 hours, read-out: W741L IC50(nM) 1st gen AR antagonist resistant mutation. The protocol:
(§1) HEK293 cells were cultured in DMEM supplemented with 10% FBS and 1% GlutaMax at 37° C. with 5% CO2. The day before transfection, the medium was changed to DMEM containing 10% charcoal-stripped FBS and 1% GlutaMax. […] The cell suspension was diluted with cell seeding solution, and the transfection reagent was added to achieve 500,000 cells/mL. Subsequently, 90 μL of cell suspension was seeded into each well of the assay plate. The next day, compounds were prepared: starting from 8 mM, 3-fold serial dilutions were performed in DMSO for a total of 8 points, then 500 nL was transferred to the compound plate using Echo. The compounds were then diluted with 40 μL of medium to 10× final concentration, and 10 μL was transferred to the cell plate and incubated at 37° C. for 30 minutes. Subsequently, 10 nL of DHT at a final concentration of 10 nM was transferred to each well of the assay plate using TECAN. After 24 hours of incubation, 100 μL of Steady-Glo was added to the assay plate and read on an Envision reader. Data were determined and analyzed using GraphPad Prism.

The next test addresses T2, AR(T877A) (Homo sapiens, UniProt P10275, T878A).
T2 construct: expressed in transfected cells; host or cells: HEK293
T2 sequence (P10275 1-920 T878A): T1 sequence (P10275 1-920 W742L) with L742W, T878A
The experiment in a line: Mutant AR antagonistic activity test, T877A (reporter gene in HEK293 cells). To be noted: for IC50: HEK293 cells, DHT 10 nM, 24 hours, read-out: T877A IC50(nM) 1st gen AR antagonist resistant mutation. The protocol: as §1

Test [1] concerns 22RV1 prostate cancer cells. The experiment in a line: Anti-proliferative activity against resistant 22RV1 cells expressing AR-V7. The conditions noted are these: Homo sapiens; 22RV1 cells expressing AR-V7 splice variant; read-out: Antiproliferative activity IC50. The protocol: The cells were then digested with trypsin and counted using an automated cell counter to determine cell density. The cell suspension was diluted to the desired density in growth medium. Subsequently, 100 μL of the cell suspension was seeded into 96-well plates and incubated at 37° C. with 5% CO2 for 24 hours. 10 μL of drug solution (including 3-fold serial dilutions of compounds or DMSO) was added to each well, and the plates were incubated at 37° C. with 5% CO2 for 6 days. Prior to measurement, the assay plates were equilibrated to room temperature. 40 μL of CellTiter-Glo® reagent was added to each well. The plates were mixed on an orbital shaker for 2 minutes to induce cell lysis. After incubation at room temperature for 60 minutes to stabilize the luminescence signal, the plates were read on an Envision plate reader.
The experimental procedure was essentially the same as that for LNCaP cells.

In the next test the test system is TMPRSS2. The experiment in a line: TMPRSS2 mRNA expression in A549 cells (qPCR). (In qPCR the cycle at which signal appears reflects the starting amount.)

As usually defined, the IC50 is the concentration that inhibits the measured activity by half. Regarding `Cc1cn(C2=CCC3C4CC=C5C[C@@H](NC(=O)c6ccc(F)cc6F)CC[C@]5(C)C4CC[C@]23C)cn1` (stereo partly drawn) [Compound 37, N-((3S,10R,13S)-17-(4-methyl-1H-imidazol-1-yl)-10,13-dimethyl-2,3,4,7,8,9,10,11,12,13,14,15-dodecahydro-1H-cyclopenta[a]phenanthren-3-yl)-2,4-difluorobenzamide], the “Maximum Inhibition (%)” value in the test on LNCaP cells was determined as 95.85%. Further, the IC50 in the test with LNCaP cells is 0.327 µM; on AR(W741L), 413 nM; at AR(T877A), 281 nM; in test [1], 0.452 µM. Also, the “Anti-proliferative activity, fold improvement compared to abiraterone” value in the test with LNCaP cells is on record as 8.6 fold.
Take `Cc1cn(C2=CCC3C4CC=C5C[C@@H](NC(=O)c6ccc(F)cc6)CC[C@]5(C)C4CC[C@]23C)cn1` (stereo partly drawn) [Compound 33, N-((3S,10R,13S)-17-(4-methyl-1H-imidazol-1-yl)-10,13-dimethyl-2,3,4,7,8,9,10,11,12,13,14,15-dodecahydro-1H-cyclopenta[a]phenanthren-3-yl)-4-fluorobenzamide]: the “Maximum Inhibition (%)” value with LNCaP cells was determined as 102.9%. Also, the IC50 with LNCaP cells came to 0.478 µM; on AR(W741L), 371 nM; on AR(T877A), 79.8 nM; in test [1] it was 0.624 µM. In the test on LNCaP cells (in words), the “Anti-tumor activity and efficacy compared to enzalutamide” value is “comparable anti-tumor activity but significantly superior anti-tumor efficacy compared to enzalutamide”. On AR(T877A) (ratio to enzalutamide IC50), the “T877A antagonistic activity, fold improvement compared to enzalutamide” value came out at 1.4 fold.
Consider `Cc1cn(C2=CCC3C4CC=C5C[C@@H](NC(=O)c6ccncc6)CC[C@]5(C)C4CC[C@]23C)cn1` (stereo partly drawn) [Compound 14, N-((3S,10R,13S)-10,13-dimethyl-17-(4-methyl-1H-imidazol-1-yl)-2,3,4,7,8,9,10,11,12,13,14,15-dodecahydro-1H-cyclopenta[a]phenanthren-3-yl)isonicotinamide], for which the “Maximum Inhibition (%)” value in the test with LNCaP cells is recorded as 99.35%. For the same compound, the IC50 came out at 0.205 µM in the test on LNCaP cells, 490 nM on AR(W741L), 209 nM at AR(T877A) and 0.591 µM in test [1]. For the same compound, the “Anti-proliferative activity, fold improvement compared to abiraterone” value in the test with LNCaP cells worked out at 15.8 fold.
Consider `Cc1cn(C2=CCC3C4CC=C5C[C@@H](NC(=O)c6ccc(S(C)(=O)=O)cc6)CC[C@]5(C)C4CC[C@]23C)cn1` (stereo partly drawn) [Compound 35, N-((3S,10R,13S)-17-(4-methyl-1H-imidazol-1-yl)-10,13-dimethyl-2,3,4,7,8,9,10,11,12,13,14,15-dodecahydro-1H-cyclopenta[a]phenanthren-3-yl)-4-(methylsulfonyl)benzamide], for which the “Expression of TMPRSS2 protein, in words” value in the test with TMPRSS2 is “significantly downregulate”. Besides, in the test on TMPRSS2 (10 μM, 1 nM DHT, 48 h, Blank = 1), the “TMPRSS2 mRNA level” value stood at 0.394. For the same compound, the “Maximum Inhibition (%)” value in the test with LNCaP cells was 96.85%. Further, the IC50 in the test with LNCaP cells stood at 0.527 µM; on AR(W741L), 259 nM; at AR(T877A), 462 nM; in test [1], 0.651 µM. Also, the “W741L antagonistic activity, fold improvement compared to enzalutamide” value at AR(W741L) (ratio to enzalutamide IC50) is reported as 4.0 fold.
